Laboratory results as given in patent US10076481B2, “Compositions for treating periodontitis and dental calculus accumulation” (The Research Foundation for the State University of New York, priority 2016, dated 2018).

Experiments:
Format in all cases: cell-based
human salivary sediment [1] = experiment: pH response of salivary sediment incubated with individual amino acids, with or without 28 mM urea; details: 37° C.
Method: (§1) To obtain human salivary sediment for performance of the experiments described herein, paraffin wax (4.02 g) was chewed by human subjects (including some subjects 70+ years of age, where oral alkalinity is commonly more prevalent) to stimulate the flow of saliva. Prior to the experiment, the subjects fasted for 12 hours and abstained from oral hygiene for at least 24 hours (to enable spontaneous dental plaque bacterial growth and buildup on their teeth and other oral surfaces (Kleinberg. I., 1967, Arch. Oral Biol., 1457-1473)). As a result of this process, oral bacteria were dislodged by the inert paraffin wax from the teeth and oral soft tissue surfaces in the mouths of the human subjects. About 40 ml of whole saliva was then collected from each subject by expectoration into a 50 ml polypropylene centrifuge tube chilled by surrounding it with cracked ice (Korayem, M. R., Traudt, M., and Kleinberg, I., 1990; Sandham, H. J. and Kleinberg, I., 1973).
(§2) The saliva collected was centrifuged at 1740 g in an International Equipment Company clinical centrifuge (Needham Heights, Mass.) for 15 min. at 4° C. The supernatant was decanted and discarded. To wash the remaining bacterial sediment, 40 ml of ice-cold distilled water was added and mixed in a vortex mixer. The resulting sediment-water mixture was centrifuged at 1740 g for 15 min. at 4° C. The supernatant was again decanted and discarded. This bacterial sediment washing procedure was repeated twice. To the washed bacterial sediment, 10 ml of deionized water was added and the composition was then mixed briefly and thoroughly in a vortex mixer. The sediment was transferred to a 15 ml polypropylene centrifuge tube. The resulting suspension was centrifuged at 1740 g for 15 min. at 4° C. and the resulting supernatant was aspirated and discarded.
To the packed 1.0 ml of salivary sediment obtained after centrifugation, 1.0 ml of deionized water was added to make a 50% salivary sediment suspension for the preparation of the following standard incubation mixtures: salivary sediment at 16.7% (v/v), with and without added individual amino acids: serine, glycine, alanine, valine, and/or histidine, etc. at either a 90 or 120 mM concentration; and leucine, isoleucine, aspartic acid, glutamine, cysteine, cystine, lysine, arginine, tyrosine, phenylalanine, threonine, proline, methionine, tyrosine, glutamine, and/or asparagine, each at 9 mM. These mixtures were each prepared in the presence or absence of 28 mM urea, which has a relatively high pH.
The initial pH of the incubation mixtures was carefully adjusted to or near 7.0 with either 1.0 M NaOH or 1.0 M HCl. Each bacterial mixture was then incubated overnight in a water bath at 37° C. The pH of each mixture was then determined using a combined pH and reference electrode (Radiometer Analytical SAS, Villeurbanne, France) at pre-determined time intervals.

human salivary sediment [2] = experiment: pH response of salivary sediment with serine, with or without sodium phytate and 6.7 mM urea
Method: as §1, §2
Separately, incubation mixtures containing salivary sediment at 16.7% (v/v) and 6.7 or 8.3 mM serine in the presence or absence of 6.7 mM urea, 20 or 25 mM serine and/or 3 mM sodium phytate (Sigma-Aldrich, St. Louis, Mo.), both in the presence or absence of 6.7 mM urea were prepared. Mixtures were incubated overnight at 37° C. in a water bath incubator (Kleinberg, I. and Hall, G., 1968; Salako, N. O. and Kleinberg, I., 1989), after adjusting the initial pH to or near 7.0 with 1N NaOH or 1N HCl.
Separately, incubation mixtures containing salivary sediment at 16.7% (v/v), 20 or 25 mM serine, and 6 mM sodium phytate were prepared in the presence or absence of 6.7 mM urea. Mixtures were incubated overnight at 37° C. in a water bath incubator, after adjusting the initial pH to or near 7.0 with 1N NaOH or 1N HCl. […]

human salivary sediment [3] = experiment: pH response of salivary sediment when initial pH was not adjusted to neutrality
Method: Separately, incubation mixtures containing salivary sediment at 16.7% (v/v), 238 mM serine, and 6 mM sodium phytate, with or without 6.7 mM urea, were prepared and incubated without adjusting the initial pH to or near 7.0, except for salivary sediment mixed with deionized water, which was adjusted to pH 8.10 with 1 M NaOH. Determination of the pH of each of these experimental entities were carried out at pre-determined time intervals (i.e., at 0 min., 15 min., 30 min., 1 h, 2 h, 3 h, 4 h, and 21 h) with a pH meter (Radiometer Copenhagen, type PHM26, Radiometer America, Westlake, Ohio) and a combination pH electrode (Radiometer Analytical, Cedex, France).

[4] = 9 mM amino acid + 28 mM urea, 21 hours (overnight)
[5] = 9 mM amino acid, without urea, 21 hours (overnight)
[6] = 9 mM amino acid + 28 mM urea, 4 hours
[7] = 9 mM amino acid, without urea, 4 hours
[8] = 90 mM amino acid + 28 mM urea, 21 hours
[9] = 120 mM amino acid + 28 mM urea, 21 hours
[10] = 90 mM amino acid + 28 mM urea, 4 hours
[11] = 120 mM amino acid + 28 mM urea, 4 hours

Structure (SMILES) | pH of salivary sediment (human salivary sediment [1]; [4]) | pH of salivary sediment (human salivary sediment [1]; [5]) | pH of salivary sediment (human salivary sediment [1]; [6]) | pH of salivary sediment (human salivary sediment [1]; [7]) | also measured
N=C(N)NCCC[C@H](N)C(=O)O [arginine] | 8.80 | 7.97 | – | – | –
CSCC[C@H](N)C(=O)O [methionine] | 8.90 | 6.20 | 9.00 | – | –
NC(=O)C[C@H](N)C(=O)O [asparagine] | 8.70 | 7.35 | 8.90 | 6.55 | –
NC(N)=O [urea] | – | – | – | – | pH of salivary sediment (human salivary sediment [1]; 28 mM urea alone, 4 hours): about 9.0; pH of salivary sediment (human salivary sediment [1]; 28 mM urea alone, 21 hours): 8.8
N[C@@H](Cc1ccc(O)cc1)C(=O)O [tyrosine] | 8.62 | – | 8.87 | – | –
O=C(O)[C@@H]1CCCN1 [proline] | 8.80 | remained about unchanged | 9.00 | 6.10 | –
N[C@@H](Cc1c[nH]cn1)C(=O)O [histidine] | – | – | – | – | pH of salivary sediment (human salivary sediment [1]; [8]): 8.30; pH of salivary sediment (human salivary sediment [1]; [9]): 8.22
CC(C)[C@H](N)C(=O)O [valine] | – | – | – | – | pH of salivary sediment (human salivary sediment [1]; [10]): 8.90; pH of salivary sediment (human salivary sediment [1]; [8]): 8.85; pH of salivary sediment (human salivary sediment [1]; [11]): 8.80; pH of salivary sediment (human salivary sediment [1]; [9]): 8.70
C[C@@H](O)[C@H](N)C(=O)O [threonine] | 8.60 | remained about unchanged | 8.90 | 6.20 | –
N[C@@H](CC(=O)O)C(=O)O [aspartic acid] | 8.60 | 7.00 | 8.90 | – | –
CC[C@H](C)[C@H](N)C(=O)O [isoleucine] | 8.65 | 6.62 | 8.90 | 6.40 | –
NCCCC[C@H](N)C(=O)O [lysine] | 8.70 | remained at neutrality | – | – | –
N[C@@H](CCC(=O)O)C(=O)O [glutamic acid] | 8.50 | 6.70 | 8.90 | – | –
N[C@@H](CO)C(=O)O [serine] | – | – | – | – | pH of salivary sediment (human salivary sediment [1]; [10]): 8.22; pH of salivary sediment (human salivary sediment [1]; [11]): 8.30; pH of salivary sediment (human salivary sediment [2]; 6.70 mM serine + 6.70 mM urea, 21 hours): 7.60; pH of salivary sediment (human salivary sediment [2]; 6.70 mM serine, without urea, 4 hours): 5.95; pH of salivary sediment (human salivary sediment [2]; 6.70 mM serine, without urea, 21 hours): 6.30; pH of salivary sediment (human salivary sediment [2]; 8.30 mM serine + 6.70 mM urea, 21 hours): 7.50; pH of salivary sediment (human salivary sediment [2]; 8.30 mM serine, without urea, 4 hours): 5.90; pH of salivary sediment (human salivary sediment [2]; 8.30 mM serine, without urea, 21 hours): 6.25; pH of salivary sediment (human salivary sediment [2]; 20 mM serine, absence of urea, 4 hours (FIG. 16, 6 mM sodium phytate series)): 7.15; pH of salivary sediment (human salivary sediment [2]; 20 mM serine, absence of urea, 4 hours, initial pH 6.90 (FIG. 15, 3 mM sodium phytate series)): 6.20; pH of salivary sediment (human salivary sediment [2]; 20 mM serine, absence of urea, 21 hours (FIG. 15, 3 mM sodium phytate series)): 6.65; pH of salivary sediment (human salivary sediment [2]; 20 mM serine, absence of urea, 21 hours (FIG. 16, 6 mM sodium phytate series)): 6.47; pH of salivary sediment (human salivary sediment [2]; 25 mM serine, absence of urea, 4 hours (FIG. 16, 6 mM sodium phytate series)): 6.17; pH of salivary sediment (human salivary sediment [2]; 25 mM serine, absence of urea, 4 hours, initial pH 7.00 (FIG. 15, 3 mM sodium phytate series)): 6.17; pH of salivary sediment (human salivary sediment [2]; 25 mM serine, absence of urea, 21 hours (FIG. 15, 3 mM sodium phytate series)): 6.70; pH of salivary sediment (human salivary sediment [2]; 25 mM serine, absence of urea, 21 hours (FIG. 16, 6 mM sodium phytate series)): 6.45; initial pH of incubation mixture (human salivary sediment [3]; absence of urea, initial pH not adjusted): 8.10; pH of incubation mixture (human salivary sediment [3]; absence of urea, initial pH not adjusted, 21 hours): 6.50; initial pH of incubation mixture (human salivary sediment [3]; with urea, initial pH not adjusted to 7.00): 8.10; pH of incubation mixture (human salivary sediment [3]; with urea, initial pH not adjusted, end of the incubation): 6.85
C[C@H](N)C(=O)O [alanine] | – | – | – | – | pH of salivary sediment (human salivary sediment [1]; [10]): 8.82; pH of salivary sediment (human salivary sediment [1]; [8]): 8.80; pH of salivary sediment (human salivary sediment [1]; [11]): 8.72; pH of salivary sediment (human salivary sediment [1]; [9]): 8.67
NC(=O)CC[C@H](N)C(=O)O [glutamine] | 8.80 | 6.25 | 9.00 | 5.95 | –
CC(C)C[C@H](N)C(=O)O [leucine] | 8.60 | 6.40 | 8.85 | 6.15 | –
N[C@@H](Cc1ccccc1)C(=O)O [phenylalanine] | 8.65 | – | 8.87 | – | –
NCC(=O)O [glycine] | – | – | – | – | pH of salivary sediment (human salivary sediment [1]; [10]): 8.72; pH of salivary sediment (human salivary sediment [1]; [8]): 8.65; pH of salivary sediment (human salivary sediment [1]; [11]): 8.90; pH of salivary sediment (human salivary sediment [1]; [9]): 8.55
N[C@@H](CS)C(=O)O [cysteine] | 8.55 | 6.60 | 8.75 | 6.35 | –
N[C@@H](CSSC[C@H](N)C(=O)O)C(=O)O [cystine] | 8.50 | 6.35 | 8.80 | – | –
N[C@@H](Cc1c[nH]c2ccccc12)C(=O)O [tryptophan] | 8.90 | 6.20 | 9.00 | – | –
